Test results from BindingDB's records for patent US11001595 (Duquesne University of The Holy Spirit, 2021).

Target: T1, Dihydrofolate reductase (Pneumocystis jirovecii (strain RU7), UniProt A0A0W4ZHR8)
T1 sequence (A0A0W4ZHR8 whole entry): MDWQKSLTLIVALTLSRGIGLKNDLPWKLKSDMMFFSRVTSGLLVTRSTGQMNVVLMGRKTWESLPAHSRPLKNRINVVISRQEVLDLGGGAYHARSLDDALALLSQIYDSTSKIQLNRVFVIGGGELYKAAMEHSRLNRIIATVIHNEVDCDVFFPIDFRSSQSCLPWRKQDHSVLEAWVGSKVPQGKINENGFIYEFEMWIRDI
Experiment: Not found
Source text: Not found

Row | Compound | IC50 [nM]
1 | COc1ccccc1Sc1sc2nc(N)nc(N)c2c1C [US11001595, Compound 2] | 177
2 | COc1ccc(Sc2sc3nc(N)nc(N)c3c2C)cc1 [US11001595, Compound 4] | 252
